Measured values from article PMC5598150 (Toxicology Reports, 2015).

What was measured:
[1] = partition coefficient between octanol and water; cited from earlier work
[2] = tested on: rat; conditions: ref Hazardous Substances Data Bank (HSDB); cited from earlier work
[3] = tested on: human neuroblastoma SK-N-SH cells; assay: MTT assay of cell viability in SK-N-SH neuroblastoma cells; type: cell-based
[4] = tested on: primary rat cortical neurons; assay: Live and Dead cell staining of primary neuronal cultures; type: cell-based; conditions: 24 h
[5] = tested on: primary cultured cells; conditions: cited from earlier work

| Structure (SMILES) | log Pow [1] | LD50 rat (intraperitoneal) [2] [mg/kg] | IC50 ([3]; Homo sapiens, SK-N-SH, 24 h) [µM] | Survival of primary cultured neurons ([4]; 0.5 mM) | Survival of primary cultured neurons ([4]; 1 mM) | Concentration causing the death of all primary cultured cells [5] [µM] | IC50 ([3]; SK-N-SH cells, MTT assay, 24 h exposure) [µM] |
| --- | --- | --- | --- | --- | --- | --- | --- |
| CCCCC(CC)CO (centres unmarked) [2-Ethyl-1-hexanol] | 2.73 | 500 | 15.1 | almost all of the primary cultured neurons died |  |  |  |
| C=CC(C)(O)CCC=C(C)C (centres unmarked) [Linalool] |  | 307 | 1330 |  | almost all of the cells in culture dishes died |  |  |
| CCCCCCCCC=O [Nonanal] | 3.27 |  | 8.31 | almost all of the primary cultured neurons died |  |  |  |
| OCCc1ccccc1 [Phenethyl alcohol] |  |  | 2390 |  | almost all of the cells in culture dishes survived |  |  |
| Cc1ccccc1 [Toluene, reference compound] |  | 1332 | 850 |  |  | 2000 |  |
| CC/C=C\CCO [cis-3-Hexen-1-ol] |  |  | 2300 |  | almost all of the cells in culture dishes died |  |  |
| CCCCCCCC=O [n-Octanal] | 2.78 |  | 37.2 | almost all of the primary cultured neurons died |  |  |  |
| CCCO [n-Propyl alcohol] |  | 164 |  |  | almost all of the cells in culture dishes survived |  | > 5000 |
